According to patent US10414769B2, “5,8-dimethyl-9-phenyl-5,8-dihydro-6H-pyrazolo[3,4-h]quinazolin-2-yl)-(1H-pyrazol-3-yl)-amines as IGF-1R/IR inhibitors” (Boehringer Ingelheim International GmbH, priority 2015, dated 2019):

Key:
Assay type in all cases: biochemical
[1] = target: T1, ABL1 (Homo sapiens, UniProt P00519); test: Z'-LYTE kinase selectivity assay ABL1
T1 construct: purchased Life Technologies P3049
Text: (§1) In order to compare the kinase selectivity of compounds (I) according to the invention with known prior art compounds the commercially provided SelectScreen® Kinase Profiling Service (Z′-LYTE®) was used (Life Technologies GmbH, Darmstadt, Germany) to investigate the ability of the compounds to inhibit a number of different, representatively selected human kinases. Further details regarding this service are available on the Life Technologies website at
(§2) The Z′-LYTE® biochemical assay employs a fluorescence-based, coupled-enzyme format and is based on the differential sensitivity of phosphorylated and non-phosphorylated peptides to proteolytic cleavage. The peptide substrate is labeled with two fluorophores—one at each end—that make up a FRET pair.
(§3) In the primary reaction, the kinase transfers the gamma-phosphate of ATP to a single tyrosine, serine or threonine residue in a synthetic FRET-peptide. In the secondary reaction, a site-specific protease recognizes and cleaves non-phosphorylated FRET-peptides. Phosphorylation of FRET-peptides suppresses cleavage by the Development Reagent. Cleavage disrupts FRET between the donor (i.e., coumarin) and acceptor (i.e., fluorescein) fluorophores on the FRET-peptide, whereas uncleaved, phosphorylated FRET-peptides maintain FRET. A ratiometric method, which calculates the ratio (the Emission Ratio) of donor emission to acceptor emission after excitation of the donor fluorophore at 400 nm, is used to quantitate reaction progress, as shown in the equation below.
(§4) The Test Compounds are screened at 1 μM.
The 2×ABL1 (# P3049)/Tyr 02 (Z′-LYTE® Kinase Assay Kit—Tyrosine 2 Peptide, # PV 3191) mixture is prepared in 50 mM HEPES pH 7.5, 0.01% BRIJ-35, 10 mM MgCl2, 1 mM EGTA. The final 10 μL Kinase Reaction consists of 0.29-2.52 ng ABL1 and 2 μM Tyr 02 in 50 mM HEPES pH 7.5, 0.01% BRIJ-35, 10 mM MgCl2, 1 mM EGTA. After the 1 hour Kinase Reaction incubation, 5 μL of a 1:128 dilution of Development Reagent A is to added.

[2] = target: T2, ACVR1B (ALK4) (Homo sapiens, UniProt P36896); test: Z'-LYTE kinase selectivity assay ACVR1B
T2 construct: purchased Life Technologies PV4312
T2 sequence (P36896 24-505): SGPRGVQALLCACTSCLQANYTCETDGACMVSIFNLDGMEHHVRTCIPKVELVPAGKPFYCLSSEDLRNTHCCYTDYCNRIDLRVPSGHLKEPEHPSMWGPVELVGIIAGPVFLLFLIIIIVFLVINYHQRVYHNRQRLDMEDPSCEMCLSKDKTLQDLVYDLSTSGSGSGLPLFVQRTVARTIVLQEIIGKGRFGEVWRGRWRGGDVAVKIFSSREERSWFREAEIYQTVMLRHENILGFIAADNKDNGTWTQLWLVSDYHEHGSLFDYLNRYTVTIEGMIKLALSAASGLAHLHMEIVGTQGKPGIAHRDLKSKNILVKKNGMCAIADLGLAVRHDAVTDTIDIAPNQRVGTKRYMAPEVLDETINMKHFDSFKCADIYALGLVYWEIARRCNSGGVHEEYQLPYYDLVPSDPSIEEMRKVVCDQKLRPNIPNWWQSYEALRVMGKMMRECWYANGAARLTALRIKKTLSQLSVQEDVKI
Text: as §1, §2, §3, §4
The 2×ACVR1B (ALK4) (# PV4312)/Ser/Thr 16 (Z′-LYTE® Kinase Assay Kit—Ser/Thr 16 Peptide, # PV 3802) mixture is prepared in 50 mM HEPES pH 7.5, 0.01% BRIJ-35, 10 mM MnCl2, 1 mM EGTA, 2 mM DTT, 0.02% NaN3. The final 10 μL Kinase Reaction consists of 9.15-60 ng ACVR1B (ALK4) and 2 μM Ser/Thr 16 in 50 mM HEPES pH 7.5, 0.01% BRIJ-35, 5 mM MgCl2, 5 mM MnCl2, 1 mM EGTA, 1 mM DTT, 0.01% NaN3. After the 1 hour Kinase Reaction incubation, 5 μL of a 1:16 dilution of Development Reagent B is added.

[3] = target: T3, FRAP1 (mTOR) (Homo sapiens, UniProt P42345); test: Z'-LYTE kinase selectivity assay FRAP1 (mTOR)
T3 construct: purchased Life Technologies PR8683B
Text: as §1, §2, §3, §4
The 2×FRAP1 (mTOR) (# PR8683B)/Ser/Thr 11 (Z′-LYTE® Kinase Assay Kit—Ser/Thr 11 Peptide, # PV 3670) mixture is prepared in 50 mM HEPES pH 7.5, 0.01% BRIJ-35, 10 mM MnCl2, 1 mM EGTA, 2 mM DTT, 0.02% NaN3. The final 10 μL Kinase Reaction consists of 11.1-56 ng FRAP1 (mTOR) and 2 μM Ser/Thr 11 in 50 mM HEPES pH 7.5, 0.01% BRIJ-35, 5 mM MgCl2, 5 mM MnCl2, 1 mM EGTA, 1 mM DTT, 0.01% NaN3. After the 1 hour Kinase Reaction incubation, 5 μL of a 1:16 dilution of Development Reagent B is added.

[4] = target: T4, FGFR1 (Homo sapiens, UniProt P11362); test: Z'-LYTE kinase selectivity assay FGFR1
T4 construct: purchased Life Technologies PV 3146
Text: as §1, §2, §3, §4
The 2×FGFR1 (# PV 3146)/Tyr 04 (Z′-LYTE® Kinase Assay Kit—Tyrosine 4 Peptide, # PV 3193) mixture is prepared in 50 mM HEPES pH 7.5, 0.01% BRIJ-35, 10 mM MgCl2, 4 mM MnCl2, 1 mM EGTA, 2 mM DTT. The final 10 μL Kinase Reaction consists of 0.44-2.45 ng FGFR1 and 2 μM Tyr 04 in 50 mM HEPES pH 7.5, 0.01% BRIJ-35, 10 mM MgCl2, 2 mM MnCl2, 1 mM EGTA, 1 mM DTT. After the 1 hour Kinase Reaction incubation, 5 μL of a 1:64 dilution of Development Reagent B is added.

T1 sequence (P00519 whole entry): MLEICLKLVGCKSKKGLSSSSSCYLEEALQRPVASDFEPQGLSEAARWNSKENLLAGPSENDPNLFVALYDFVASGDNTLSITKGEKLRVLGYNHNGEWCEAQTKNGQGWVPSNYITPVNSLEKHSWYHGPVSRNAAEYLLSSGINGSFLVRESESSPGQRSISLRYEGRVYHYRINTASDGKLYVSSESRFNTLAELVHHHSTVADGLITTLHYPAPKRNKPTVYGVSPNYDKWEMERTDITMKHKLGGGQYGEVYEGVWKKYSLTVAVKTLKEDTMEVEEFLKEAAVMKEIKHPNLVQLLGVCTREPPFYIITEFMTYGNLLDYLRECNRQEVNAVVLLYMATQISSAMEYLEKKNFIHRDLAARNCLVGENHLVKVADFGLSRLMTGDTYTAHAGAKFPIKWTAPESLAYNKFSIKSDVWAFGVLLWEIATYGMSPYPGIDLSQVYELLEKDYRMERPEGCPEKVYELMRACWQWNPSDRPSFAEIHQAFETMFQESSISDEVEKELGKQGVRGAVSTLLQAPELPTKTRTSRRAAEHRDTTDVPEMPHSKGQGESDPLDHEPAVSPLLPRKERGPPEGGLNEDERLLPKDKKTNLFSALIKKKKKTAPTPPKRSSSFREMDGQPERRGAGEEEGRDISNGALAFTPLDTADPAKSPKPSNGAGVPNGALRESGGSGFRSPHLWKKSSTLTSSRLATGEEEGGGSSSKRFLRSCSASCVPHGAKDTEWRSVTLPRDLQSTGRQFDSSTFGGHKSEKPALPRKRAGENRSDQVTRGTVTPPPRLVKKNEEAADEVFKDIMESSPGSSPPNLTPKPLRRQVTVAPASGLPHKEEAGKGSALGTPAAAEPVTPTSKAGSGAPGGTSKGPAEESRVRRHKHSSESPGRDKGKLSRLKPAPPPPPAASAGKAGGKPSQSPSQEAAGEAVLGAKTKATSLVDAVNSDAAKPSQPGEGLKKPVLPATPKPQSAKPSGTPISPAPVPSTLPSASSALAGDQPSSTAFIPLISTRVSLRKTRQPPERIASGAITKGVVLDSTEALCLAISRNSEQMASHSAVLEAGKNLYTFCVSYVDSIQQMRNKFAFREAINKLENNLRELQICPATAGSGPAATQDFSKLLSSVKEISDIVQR
T4 sequence (P11362 22-822): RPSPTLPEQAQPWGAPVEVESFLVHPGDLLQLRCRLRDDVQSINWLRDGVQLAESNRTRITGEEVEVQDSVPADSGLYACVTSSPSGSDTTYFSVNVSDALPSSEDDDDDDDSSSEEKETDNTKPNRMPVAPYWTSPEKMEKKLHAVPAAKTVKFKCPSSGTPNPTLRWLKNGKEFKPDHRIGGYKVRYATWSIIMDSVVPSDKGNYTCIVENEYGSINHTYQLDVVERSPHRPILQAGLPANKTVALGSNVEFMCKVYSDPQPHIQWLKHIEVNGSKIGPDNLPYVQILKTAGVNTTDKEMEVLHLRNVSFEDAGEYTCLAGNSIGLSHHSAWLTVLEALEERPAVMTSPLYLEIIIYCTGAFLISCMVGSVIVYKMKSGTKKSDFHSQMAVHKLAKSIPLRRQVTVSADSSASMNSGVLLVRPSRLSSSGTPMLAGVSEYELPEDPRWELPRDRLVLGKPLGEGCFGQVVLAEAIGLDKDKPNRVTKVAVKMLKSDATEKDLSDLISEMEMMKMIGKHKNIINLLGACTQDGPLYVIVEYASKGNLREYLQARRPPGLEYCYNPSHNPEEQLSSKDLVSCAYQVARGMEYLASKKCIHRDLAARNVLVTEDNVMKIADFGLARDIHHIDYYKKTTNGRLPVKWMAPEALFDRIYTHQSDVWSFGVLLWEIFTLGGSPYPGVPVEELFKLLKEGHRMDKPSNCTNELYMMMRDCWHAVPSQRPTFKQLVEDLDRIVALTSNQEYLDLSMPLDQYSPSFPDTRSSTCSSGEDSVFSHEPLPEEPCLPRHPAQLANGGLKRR

Row | inhibition at 1 µM [1] | inhibition at 1 µM [2] | inhibition at 1 µM [3] | inhibition at 1 µM [4] | SMILES
1 | 24% | -10% | -6% | 30% | C[C@@H]1Cc2nn(C)c(-c3ccccc3)c2-c2nc(Nc3ccn(CCN4CCN(C)CC4)n3)ncc21 [Compound I-1]
2 | 22% | 0% | 3% | 34% | CC(O)CN1CCN(CCn2ccc(Nc3ncc4c(n3)-c3c(nn(C)c3-c3ccccc3)C[C@H]4C)n2)CC1 (stereo partly shown) [Compound I-7]
3 | 10% | -11% | -11% | 28% | COCCN1CCN(CCn2ccc(Nc3ncc4c(n3)-c3c(nn(C)c3-c3ccccc3)C[C@H]4C)n2)CC1 [Compound I-11]

Second part, the compound before the results:

Row | SMILES | inhibition at 1 µM [1] | inhibition at 1 µM [2] | inhibition at 1 µM [3] | inhibition at 1 µM [4]
4 | C[C@@H]1Cc2nn(C)c(-c3ccccc3)c2-c2nc(Nc3ccn(CCN4CCOCC4)n3)ncc21 [Compound I-2] | 17% | 0% | 1% | 40%
5 | C[C@@H]1Cc2nn(C)c(-c3ccccc3)c2-c2nc(Nc3ccn(CCN4CCN(CC(C)(C)O)CC4)n3)ncc21 [Compound I-3] | 27% | 0% | -10% | 34%
6 | C[C@@H]1Cc2nn(C)c(-c3ccccc3)c2-c2nc(Nc3ccn(CCN4CCN(CC(=O)OC5CCOCC5)CC4)n3)ncc21 [Compound I-8] | 10% | -4% | -8% | 29%
7 | C[C@@H]1Cc2nn(C)c(-c3ccccc3)c2-c2nc(Nc3ccn(CCN4CCN(CC5CCCO5)CC4)n3)ncc21 (stereo partly shown) [Compound I-9] | 17% | 7% | -12% | 32%
